Test results: ChEMBL document CHEMBL4831493 (Eur J Med Chem, 2021)
The source made the active and inactive calls. The rule behind the calls is not given here.

Key:
Acetylcholinesterase = Acetylcholinesterase (Electrophorus electricus, UniProt O42275); test: Inhibition of electric eel recombinant AChE preincubated for 1 min in presence of DNTB followed by addition of acetylthiocholine iodide substrate and measured after 20 mins by Ellman's method
[1] = target: Cyclin-dependent kinase 2 (Homo sapiens) (UniProt P24941); test: Inhibition of CDK2 (unknown origin) at 0.3 uM
[2] = target: Cyclin-dependent kinase 4 (Homo sapiens) (UniProt P11802); test: Inhibition of CDK4 (unknown origin) at 0.3 uM
[3] = target: Cyclin-dependent kinase 6 (Homo sapiens) (UniProt Q00534); test: Inhibition of CDK6 (unknown origin) at 0.3 uM
[4] = target: Cyclin-dependent kinase 7 (Homo sapiens) (UniProt P50613); test: Inhibition of CDK7 (unknown origin) at 0.3 uM
[5] = target: Mitogen-activated protein kinase 3 (Homo sapiens) (UniProt P27361); test: Inhibition of ERK1 (unknown origin) at 0.3 uM
[6] = target: Mitogen-activated protein kinase 14 (Homo sapiens) (UniProt Q16539); test: Inhibition of p38alpha (unknown origin) at 0.3 uM
[7] = target: Mitogen-activated protein kinase 11 (Homo sapiens) (UniProt Q15759); test: Inhibition of p38beta (unknown origin) at 0.3 uM
[8] = target: Mitogen-activated protein kinase 12 (Homo sapiens) (UniProt P53778); test: Inhibition of p38gamma (unknown origin) at 0.3 uM
[9] = target: Mitogen-activated protein kinase 13 (Homo sapiens) (UniProt O15264); test: Inhibition of p38delta (unknown origin) at 0.3 uM
[10] = target: Mitogen-activated protein kinase 10 (Homo sapiens) (UniProt P53779); test: Inhibition of JNK3 (unknown origin) at 0.3 uM
[11] = Drug level in ICR mouse brain at 10 mg/kg, po measured after 1 hr by LC/MS/MS analysis; assay type: ADME, organism-based; conditions: read-out: Ct
[12] = Drug level in ICR mouse plasma at 10 mg/kg, po measured after 1 hr by LC/MS/MS analysis; assay type: ADME, organism-based
[13] = Drug level in ICR mouse plasma at 10 mg/kg, po measured after 1.5 hrs by LC/MS/MS analysis; assay type: ADME, organism-based
[14] = Ratio of drug level in brain to plasma of ICR mouse at 10 mg/kg, po measured after 1 hr by LC/MS/MS analysis; assay type: ADME, organism-based; conditions: brain and plasma
HT-22 = test: Neuroprotective activity in mouse HT-22 cells assessed as glutamate-induced cell mortality at 6 uM preincubated for 1 hr followed by addition of glutamate and measured after 24 hrs (reference value: 58%); assay type: functional; conditions: time 25 hrs
[15] = AUC (0 to infinity) in Sprague-Dawley rat at 1 mg/kg, iv measured up to 24 hrs by LC-MS/MS analysis; assay type: ADME, organism-based; parameters: route intravenous, dose 1 mg/kg, time <=24; conditions: in vivo
[16] = Cmax in Sprague-Dawley rat at 10 mg/kg, po measured up to 24 hrs by LC-MS/MS analysis; assay type: ADME, organism-based; parameters: route oral, dose 10 mg/kg, time <=24; conditions: in vivo
[17] = Cmax in Sprague-Dawley rat at 1 mg/kg, iv measured up to 24 hrs by LC-MS/MS analysis; assay type: ADME, organism-based; parameters: route intravenous, dose 1 mg/kg, time <=24; conditions: in vivo
[18] = Tmax in Sprague-Dawley rat at 10 mg/kg, po measured up to 24 hrs by LC-MS/MS analysis; assay type: ADME, organism-based; conditions: in vivo
[19] = MRT (0 to infinity) in Sprague-Dawley rat at 10 mg/kg, po measured up to 24 hrs by LC-MS/MS analysis; assay type: ADME, organism-based; conditions: in vivo
[20] = Oral bioavailability in Sprague-Dawley rat at 10 mg/kg measured up to 24 hrs by LC-MS/MS analysis; assay type: ADME, organism-based; conditions: in vivo
[21] = target: Glycogen synthase kinase-3 beta (Mus musculus) (UniProt Q9WV60); test: Inhibition of GSK3beta in glutamate-induced mouse HT-22 cells assessed as increase in synaptophysin level at 0.6 uM pretreated with glutamate for 24 hrs followed by compound treatment by immunocytochemistry assay; assay type: cell-based
[22] = target: Glycogen synthase kinase-3 beta (Mus musculus) (UniProt Q9WV60); test: Inhibition of GSK3beta in mouse N2a cells overexpressing human tau assessed as decrease in tau phosphorylation at Ser396 residue at 0.9 uM measured after 6 hrs by Western blot assay; assay type: cell-based
[23] = target: Glycogen synthase kinase-3 beta (Mus musculus) (UniProt Q9WV60); test: Inhibition of GSK3beta in mouse N2a cells overexpressing human tau assessed as decrease in tau phosphorylation at Ser 396 residue measured after 6 hrs by Western blot assay; assay type: cell-based
Mus musculus [24] = test: Improvement in learning and spatial memory in amyloid beta (1 to 42)-induced mouse model of Alzheimer's disease assessed as increase in spontaneous alteration at 10 mg/kg/day, po pretreated with amyloid beta42 for 3 days followed by treatment with compound and measured after 9 days measured by Y-maze test; assay type: functional, organism-based; conditions: time 9.0 day
Mus musculus [25] = test: Improvement in learning and spatial memory in amyloid beta (1 to 42)-induced mouse model of Alzheimer's disease at 10 mg/kg/day, po pretreated with amyloid beta42 for 3 days followed by treatment with compound and measured after 9 days measured by Y-maze test; assay type: functional, organism-based; conditions: time 9.0 day
[26] = Toxicity in amyloid beta (1 to 42)-induced mouse model of Alzheimer's disease assessed as changes in body weight at 10 mg/kg/day, po measured after 9 days; assay type: organism-based; conditions: in vivo, 216 h, time 9 day
[27] = Toxicity in amyloid beta (1 to 42)-induced mouse model of Alzheimer's disease assessed as changes in swimming speed at 10 mg/kg/day, po measured after 9 days; assay type: organism-based; conditions: in vivo, 216 h, time 9 day
[28] = Toxicity in amyloid beta (1 to 42)-induced mouse model of Alzheimer's disease assessed as morphological changes in liver tissue at 10 mg/kg/day, po measured after 9 days by HE staining method; assay type: organism-based; conditions: in vivo, 216 h, time 9 day
[29] = target: T1, Acetylcholinesterase (Mus musculus) (UniProt P21836); conditions: ICR, dose 10.0 mg/kg, time 1.5 hrs
T1 sequence (whole entry): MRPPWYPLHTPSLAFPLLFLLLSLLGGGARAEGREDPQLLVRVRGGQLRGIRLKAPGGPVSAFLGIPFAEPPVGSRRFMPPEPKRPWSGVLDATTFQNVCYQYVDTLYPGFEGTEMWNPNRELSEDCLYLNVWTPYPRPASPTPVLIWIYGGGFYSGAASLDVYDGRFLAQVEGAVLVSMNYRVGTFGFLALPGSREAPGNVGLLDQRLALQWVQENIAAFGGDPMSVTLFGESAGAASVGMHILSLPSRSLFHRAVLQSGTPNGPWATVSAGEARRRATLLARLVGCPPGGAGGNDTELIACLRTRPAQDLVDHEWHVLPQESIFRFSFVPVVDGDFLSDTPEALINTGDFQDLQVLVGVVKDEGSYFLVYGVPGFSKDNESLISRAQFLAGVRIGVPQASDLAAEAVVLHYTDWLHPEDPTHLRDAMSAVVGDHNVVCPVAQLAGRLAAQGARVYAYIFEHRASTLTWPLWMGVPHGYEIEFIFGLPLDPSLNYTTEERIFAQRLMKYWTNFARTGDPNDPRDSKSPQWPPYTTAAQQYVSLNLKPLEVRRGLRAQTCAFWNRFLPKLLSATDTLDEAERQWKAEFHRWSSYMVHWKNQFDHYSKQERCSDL

Chain of Glycogen synthase kinase-3 beta (Mus musculus) (Q9WV60 whole entry, looked up): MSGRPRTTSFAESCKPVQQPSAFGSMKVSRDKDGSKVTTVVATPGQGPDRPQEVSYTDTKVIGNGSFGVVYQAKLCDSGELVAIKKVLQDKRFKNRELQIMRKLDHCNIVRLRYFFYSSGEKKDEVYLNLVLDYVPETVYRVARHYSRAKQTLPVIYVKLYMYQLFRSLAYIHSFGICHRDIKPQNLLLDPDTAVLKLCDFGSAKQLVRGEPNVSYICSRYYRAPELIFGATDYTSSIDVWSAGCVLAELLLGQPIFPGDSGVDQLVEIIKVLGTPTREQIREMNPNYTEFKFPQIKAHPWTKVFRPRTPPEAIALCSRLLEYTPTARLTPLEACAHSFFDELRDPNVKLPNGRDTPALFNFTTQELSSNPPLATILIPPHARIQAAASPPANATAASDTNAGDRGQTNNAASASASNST
Chain of Cyclin-dependent kinase 6 (Homo sapiens) (Q00534 whole entry): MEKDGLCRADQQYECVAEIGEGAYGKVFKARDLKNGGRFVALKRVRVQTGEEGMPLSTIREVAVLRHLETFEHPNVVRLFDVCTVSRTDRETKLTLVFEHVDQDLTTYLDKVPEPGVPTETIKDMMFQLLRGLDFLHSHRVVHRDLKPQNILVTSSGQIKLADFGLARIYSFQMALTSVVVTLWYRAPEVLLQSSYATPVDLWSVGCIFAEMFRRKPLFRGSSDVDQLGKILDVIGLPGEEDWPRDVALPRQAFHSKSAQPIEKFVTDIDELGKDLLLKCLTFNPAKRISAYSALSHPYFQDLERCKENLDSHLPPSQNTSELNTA
Chain of Cyclin-dependent kinase 7 (Homo sapiens) (P50613 whole entry): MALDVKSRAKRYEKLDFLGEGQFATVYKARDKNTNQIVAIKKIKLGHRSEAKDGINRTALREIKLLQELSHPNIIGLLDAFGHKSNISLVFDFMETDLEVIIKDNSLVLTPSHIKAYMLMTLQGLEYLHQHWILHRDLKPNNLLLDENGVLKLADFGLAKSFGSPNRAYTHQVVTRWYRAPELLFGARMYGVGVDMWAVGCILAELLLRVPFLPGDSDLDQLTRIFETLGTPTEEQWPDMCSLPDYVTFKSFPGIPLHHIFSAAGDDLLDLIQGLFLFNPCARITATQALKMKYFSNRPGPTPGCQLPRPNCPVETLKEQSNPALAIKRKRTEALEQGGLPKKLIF
Chain of Acetylcholinesterase (O42275 whole entry): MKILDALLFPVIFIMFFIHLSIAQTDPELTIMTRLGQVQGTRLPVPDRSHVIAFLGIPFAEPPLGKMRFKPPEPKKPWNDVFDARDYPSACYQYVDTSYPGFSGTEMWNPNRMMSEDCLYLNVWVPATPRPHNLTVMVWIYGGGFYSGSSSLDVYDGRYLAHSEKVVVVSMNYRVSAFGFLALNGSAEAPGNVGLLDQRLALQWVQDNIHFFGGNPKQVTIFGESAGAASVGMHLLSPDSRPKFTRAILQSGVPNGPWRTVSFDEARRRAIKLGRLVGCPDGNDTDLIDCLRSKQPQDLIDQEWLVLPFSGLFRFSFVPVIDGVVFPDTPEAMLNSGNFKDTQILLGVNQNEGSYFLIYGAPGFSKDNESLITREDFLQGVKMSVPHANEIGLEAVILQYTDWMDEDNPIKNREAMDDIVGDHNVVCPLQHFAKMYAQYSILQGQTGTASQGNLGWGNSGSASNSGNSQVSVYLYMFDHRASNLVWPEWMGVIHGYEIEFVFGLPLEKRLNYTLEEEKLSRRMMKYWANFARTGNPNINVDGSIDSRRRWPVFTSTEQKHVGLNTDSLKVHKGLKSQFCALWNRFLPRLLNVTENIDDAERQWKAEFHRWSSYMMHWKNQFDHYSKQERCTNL
Chain of Mitogen-activated protein kinase 10 (Homo sapiens) (P53779 whole entry): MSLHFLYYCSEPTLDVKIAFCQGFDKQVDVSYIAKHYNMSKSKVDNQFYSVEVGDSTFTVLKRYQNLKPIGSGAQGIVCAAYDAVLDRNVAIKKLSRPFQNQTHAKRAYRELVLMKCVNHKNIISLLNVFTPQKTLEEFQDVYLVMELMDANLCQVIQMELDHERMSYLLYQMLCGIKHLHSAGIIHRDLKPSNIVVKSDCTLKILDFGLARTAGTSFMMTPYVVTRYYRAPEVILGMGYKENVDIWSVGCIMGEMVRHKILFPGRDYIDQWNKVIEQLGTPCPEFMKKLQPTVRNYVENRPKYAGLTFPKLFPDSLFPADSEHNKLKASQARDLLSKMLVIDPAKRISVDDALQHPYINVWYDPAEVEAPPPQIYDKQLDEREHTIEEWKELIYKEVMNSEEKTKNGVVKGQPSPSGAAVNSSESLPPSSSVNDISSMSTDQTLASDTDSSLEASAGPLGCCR
Chain of Mitogen-activated protein kinase 13 (Homo sapiens) (O15264 whole entry): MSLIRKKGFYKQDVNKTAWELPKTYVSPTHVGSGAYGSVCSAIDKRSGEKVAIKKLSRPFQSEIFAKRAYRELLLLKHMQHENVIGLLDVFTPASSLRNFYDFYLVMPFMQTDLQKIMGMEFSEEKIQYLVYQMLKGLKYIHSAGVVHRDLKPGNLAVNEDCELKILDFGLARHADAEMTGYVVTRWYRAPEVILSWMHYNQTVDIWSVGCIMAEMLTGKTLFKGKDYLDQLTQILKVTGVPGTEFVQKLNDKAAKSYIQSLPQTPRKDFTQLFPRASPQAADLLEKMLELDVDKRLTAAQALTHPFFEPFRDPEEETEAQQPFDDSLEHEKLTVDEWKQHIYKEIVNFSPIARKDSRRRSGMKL
Chain of Mitogen-activated protein kinase 14 (Homo sapiens) (Q16539 whole entry): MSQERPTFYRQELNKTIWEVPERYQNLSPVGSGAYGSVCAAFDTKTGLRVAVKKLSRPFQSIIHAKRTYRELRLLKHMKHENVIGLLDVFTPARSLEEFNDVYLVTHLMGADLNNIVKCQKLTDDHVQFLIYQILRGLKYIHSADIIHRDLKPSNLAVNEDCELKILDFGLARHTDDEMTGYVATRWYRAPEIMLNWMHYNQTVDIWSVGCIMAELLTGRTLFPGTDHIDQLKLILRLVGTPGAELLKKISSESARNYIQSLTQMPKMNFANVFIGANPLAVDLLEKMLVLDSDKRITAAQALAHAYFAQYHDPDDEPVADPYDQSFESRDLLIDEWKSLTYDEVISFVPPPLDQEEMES
Chain of Mitogen-activated protein kinase 3 (Homo sapiens) (P27361 whole entry): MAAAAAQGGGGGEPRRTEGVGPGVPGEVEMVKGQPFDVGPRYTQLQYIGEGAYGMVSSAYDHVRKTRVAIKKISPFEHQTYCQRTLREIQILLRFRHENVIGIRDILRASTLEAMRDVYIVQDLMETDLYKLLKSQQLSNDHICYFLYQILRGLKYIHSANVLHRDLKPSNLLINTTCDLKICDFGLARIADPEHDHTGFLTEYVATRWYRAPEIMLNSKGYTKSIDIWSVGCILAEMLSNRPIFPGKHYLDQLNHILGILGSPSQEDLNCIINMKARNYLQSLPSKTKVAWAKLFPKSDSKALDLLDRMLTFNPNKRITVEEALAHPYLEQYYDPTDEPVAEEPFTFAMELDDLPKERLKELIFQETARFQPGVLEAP
Chain of Mitogen-activated protein kinase 12 (Homo sapiens) (P53778 whole entry): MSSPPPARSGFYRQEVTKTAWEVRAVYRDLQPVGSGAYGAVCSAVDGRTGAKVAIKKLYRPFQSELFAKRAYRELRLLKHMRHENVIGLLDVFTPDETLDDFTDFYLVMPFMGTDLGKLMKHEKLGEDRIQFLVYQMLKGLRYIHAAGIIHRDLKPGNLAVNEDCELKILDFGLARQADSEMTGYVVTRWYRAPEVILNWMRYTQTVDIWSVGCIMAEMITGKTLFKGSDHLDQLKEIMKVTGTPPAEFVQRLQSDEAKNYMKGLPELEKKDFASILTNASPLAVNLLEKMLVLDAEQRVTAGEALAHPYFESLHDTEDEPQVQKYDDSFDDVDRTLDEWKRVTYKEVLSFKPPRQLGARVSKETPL
Chain of Mitogen-activated protein kinase 11 (Homo sapiens) (Q15759 whole entry): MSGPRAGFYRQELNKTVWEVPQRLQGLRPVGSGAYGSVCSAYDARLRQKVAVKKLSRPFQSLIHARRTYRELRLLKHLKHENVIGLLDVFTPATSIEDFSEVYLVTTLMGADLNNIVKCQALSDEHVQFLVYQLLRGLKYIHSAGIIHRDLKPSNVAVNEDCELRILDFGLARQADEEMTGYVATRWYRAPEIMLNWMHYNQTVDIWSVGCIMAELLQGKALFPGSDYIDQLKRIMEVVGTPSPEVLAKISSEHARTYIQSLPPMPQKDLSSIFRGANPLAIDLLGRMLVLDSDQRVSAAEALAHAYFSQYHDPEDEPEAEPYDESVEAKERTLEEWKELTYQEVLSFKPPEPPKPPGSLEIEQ
Chain of Cyclin-dependent kinase 4 (Homo sapiens) (P11802 whole entry): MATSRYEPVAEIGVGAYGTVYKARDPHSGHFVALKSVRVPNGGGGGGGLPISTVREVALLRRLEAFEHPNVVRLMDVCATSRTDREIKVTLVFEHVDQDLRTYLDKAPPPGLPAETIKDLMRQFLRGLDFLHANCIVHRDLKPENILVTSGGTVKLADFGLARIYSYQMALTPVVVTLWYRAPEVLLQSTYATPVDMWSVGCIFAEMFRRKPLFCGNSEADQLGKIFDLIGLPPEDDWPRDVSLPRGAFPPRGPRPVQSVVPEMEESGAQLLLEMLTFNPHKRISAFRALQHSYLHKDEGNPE

In the case of `O=C(Nc1cncc(OCC2CCN(Cc3ccc(F)cc3)CC2)c1)c1ccnc(NC(=O)C2CC2)c1`, the IC50 (Acetylcholinesterase) is reported as 0.0118 µM, the inhibition [1] is reported as “inactive” and the inhibition [2] is reported as “inactive”. The inhibition [3] was “inactive”, the inhibition [4] was “inactive” and the inhibition [5] was “inactive”. For the same compound, the inhibition [6] was “inactive”, the inhibition [7] was “inactive” and the inhibition [8] was “inactive”. For the same compound, the inhibition [9] was “inactive”, the inhibition [10] was “inactive” and the concentration at 1 h [11] was 62 ng/g. For the same compound, the concentration at 1 h [12] was 405 ng/g, the concentration at 1.5 h [13] was 343 ng/g and the Kp at 1 h [14] was 0.153. It also gave an Activity (HT-22) of 66%, an AUC(0-inf) [15] of 407 ng·h/mL and a Cmax [16] of 159 ng/mL. For the same compound, the Cmax [17] was 200 ng/mL, the Tmax [18] was 1.9 h and the MRT inf [19] was 10.9 h. For the same compound, the bioavailability [20] was 31%, the inhibition [21] was “Active” and the inhibition [22] was “inactive”. For the same compound, the inhibition [23] was “Dose-Dependent Effect”, the Activity (Mus musculus [24]) was “Active” and the Activity (Mus musculus [25]) was “Active”. The Activity [26] was “Non-Toxic”, the Activity [27] was “Non-Toxic” and the Activity [28] was “Non-Toxic”. For the same compound, the inhibition [29] was 85.5%.
